Measurements published in patent EP4371976B1, “IONIZABLE LIPIDS AND LIPID NANOPARTICLES CONTAINING THEREOF” (Certest Biotec, S.L., priority 2022, dated 2024).

How the values were obtained:
[1] = RNA encapsulation efficiency of LNPs by Quant-IT Ribogreen; type: physicochemical; conditions: for Encaps. efficiency (%): LNPs with luciferase mRNA, ionizable lipid:non-cationic lipid:sterol:PEG-modified lipid 50:10:38.5:1.5, percentage of RNA entrapped in the LNP
Procedure: The mRNA aqueous solution was then carefully added to the ethanol solution, and the resulted solution was homogenized by pipetting up and down for 4-5 times. The resulting LNPs were immediately diluted 1:1 with Tris buffer and dialyzed overnight against Tris buffer containing 15% sucrose. The resulting LNP solution was then collected, and the encapsulated mRNA was assessed by Quant-IT® Ribogreen (Invitrogen R11490) following the manufacturer's instructions.
(§1) The LNP solution was then adjusted to a final concentration of mRNA of 100 µg/ml. Size distribution, polydispersity and Z-potential were measured by dynamic light scattering (DLS) using Malvern Zetasizer Advance Lab Blue Label. RNA encapsulation was assessed by Quant-IT® Ribogreen following the manufacturer's instructions.

[2] = Size distribution, polydispersity and Z-potential of LNPs by dynamic light scattering (Malvern Zetasizer); type: physicochemical; conditions: LNPs, standard formulation 50:10:38.5:1.5; DLS
Procedure: as §1

Encaps. efficiency (%) [1]	Z Potential (± D.E.) [mV] [2]	P.D.I. [2]	Particle size/ Ø (nm) [2]	Structure (SMILES)	Encaps. efficiency ([1]; Table 8, LNP 50:10:38.5:1.5, luciferase mRNA)
54.05%	-23.20 mV	0.26		CCCCCCCCCCCCCCCCCCCCCCOC(=O)CCSCC(CC(=O)NCCCn1ccnc1)C(=O)OC(CCCCCCCC)CCCCCCCC (stereo not drawn) [VC-LC-0304]	
98.35%	5.74 mV	0.19	178.1 nm	CCCCCCCCCCCCCCCCCCCCCCOC(=O)CCSCC(CC(=O)NC1CCN(C)CC1)C(=O)OCC(CCCCCC)CCCCCCCC (stereo not drawn) [VC-LC-0533]	
53.57%	1.09 mV	0.16	175 nm	CCCCCCCCC(CCCCCC)C(=O)NC(CCSCCC(=O)OCC(CC)CCCC)C(=O)NCCCN1CCCC1 (stereo not drawn) [VC-LC-0244]	
97.41%	7.65 mV	0.26	164 nm	CCCCCCCCCCCCCCCCCCOC(=O)CCSCC(CC(=O)NC1CCN(C)CC1)C(=O)OCC(CCCCCC)CCCCCCCC (stereo not drawn) [VC-LC-0530]	
98.54%	9.15 mV	0.19	158.6 nm	CCCCCCCCCCCCCCCCOC(=O)CCSCC(CC(=O)NC1CCN(C)CC1)C(=O)OCC(CCCCCC)CCCCCCCC (stereo not drawn) [VC-LC-0531]	
97.01%	3.83 mV	0.15	129.9 nm	CCCCCCCCCCCCCOC(=O)CCSCC(CC(=O)NC1CCN(C)CC1)C(=O)OCC(CCCCCC)CCCCCCCC (stereo not drawn) [VC-LC-0524]	
87.02%	4.77 mV	0.11	135.2 nm	CCCCCCCCOC(=O)CCSCCC(NC(=O)C(CCCCCC)CCCCCCCC)C(=O)NCCN1CCN(C)CC1 (stereo not drawn) [VC-LC-0191]	
86.70%	3.38 mV	0.18	158.7 nm	CCCCCCCCC(CCCCCC)C(=O)NC(CCSCCC(=O)OCCCCCC(C)C)C(=O)NCCN1CCN(C)CC1 (stereo not drawn) [VC-LC-0186]	
72.79%	-2.41 mV	0.14	156.7 nm	CCCCCCCCC(CCCCCC)C(=O)NC(CCSCCC(=O)OCCCCCC(C)C)C(=O)NC1CCN(C)CC1 (stereo not drawn) [VC-LC-0217]	
36.51%	-9.75 mV	0.17	156.9 nm	CCCCCCCCCCCCCCCCCCOC(=O)CCSCC(CC(=O)NCCCn1ccnc1)C(=O)OC(CCCCCCCC)CCCCCCCC (stereo not drawn) [VC-LC-0300]	
94.64%	5.96 mV	0.16	177.3 nm	CCCCCCCCCCCCOC(=O)CCSCCC(NC(=O)C(CCCCCC)CCCCCCCC)C(=O)NCCCN1CCCC1 (stereo not drawn) [VC-LC-0245]	
93.35%	2.43 mV	0.18	197.6 nm	CCCCCCCCC(CCCCCC)C(=O)NC(CCSCCC(=O)OCCCCCCCC(C)C)C(=O)NCCCN1CCCC1 (stereo not drawn) [VC-LC-0243]	
97.90%	3.68 mV	0.16	124.7 nm	CCCCCCCCC(CCCCCC)COC(=O)C(CSCCC(=O)OCCCCCCCC(C)C)CC(=O)NC1CCN(C)CC1 (stereo not drawn) [VC-LC-0526]	

Continued, molecule first:

Structure (SMILES)	Encaps. efficiency (%) [1]	Z Potential (± D.E.) [mV] [2]	P.D.I. [2]	Particle size/ Ø (nm) [2]	Encaps. efficiency ([1]; Table 8, LNP 50:10:38.5:1.5, luciferase mRNA)
CCCCCCCCCCCCCOC(=O)CCSCCC(NC(=O)C(CCCCCC)CCCCCCCC)C(=O)NCCCN(C)C (stereo not drawn) [VC-LC-0099]	98.48%	0.00 mV			
CCCCCCCCCCCCCCCCCCOC(=O)CCSCCC(C(=O)NCCCn1ccnc1)C(=O)OC(CCCCCCCC)CCCCCCCC (stereo not drawn) [VC-LC-0368]	89.08%	-15.81 mV	0.1	140.9 nm	
CCCCCCCC/C=C\CCCCCCCC(=O)NC(CCSCCC(=O)OCCCCCC(C)C)C(=O)NCCCN(CCO)CCO (stereo not drawn) [VC-LC-0293]	92.48%	12.29 mV	0.13	178.6 nm	
CCCCCCCCC(CCCCCC)C(=O)NC(CCSCCC(=O)OCCCCCC(C)C)C(=O)NCCCN1CCOCC1 (stereo not drawn) [VC-LC-0171]	53.65%	-23.07 mV	0.24	228.8 nm	
CCCCCCCCC(CCCCCC)C(=O)NC(CCSCCC(=O)OCC(CC)CCCC)C(=O)NCCN1CCN(C)CC1 (stereo not drawn) [VC-LC-0181]	85.48%	-6.47 mV	0.35	206.7 nm	
CCCCCCCCC(CCCCCCCC)OC(=O)C(CCSCCC(=O)OCCCCCC(C)C)C(=O)NCCCn1ccnc1 (stereo not drawn) [VC-LC-0370]	62.48%	-7.08 mV	0.21	134.7 nm	
CCCCCCCCC(CCCCCC)C(=O)NC(CCSCCC(=O)OCCCCCC)C(=O)NCCCN(CCO)CCO (stereo not drawn) [VC-LC-0206]	82.26%	-2.86 mV	0.17	179.9 nm	
CCCCCCCC/C=C\CCCCCCCC(=O)NC(CCSCCC(=O)OCCCCCCCCCCCCC)C(=O)NC1CCN(C)CC1 (stereo not drawn) [VC-LC-0322]	97.01%	2.31 mV	0.17	220.5 nm	
CCCCCCCCC(CCCCCC)C(=O)NC(CCSCCC(=O)OCC(CC)CCCC)C(=O)NCCCN1CCOCC1 (stereo not drawn) [VC-LC-0166]	42.53%	-24.55 mV	0.11	164.8 nm	
CCCCCCCCCCCCCOC(=O)CCSCCC(NC(=O)C(CCCCCCCC)CCCCCCCCCC)C(=O)NC1CCN(C)CC1 (stereo not drawn) [VC-LC-0556]	54.53%	-7.57 mV	0.14	156.7 nm	
CCCCCCCC#CCOC(=O)CCSCCC(NC(=O)CCCCCCC/C=C\CCCCCCCC)C(=O)NCCCN1CCOCC1 (stereo not drawn) [VC-LC-0354]	68.28%	-0.57 mV	0.13	234.3 nm	
CCCCCCCCC(CCCCCC)C(=O)NC(CCSCCC(=O)OCCCCCCCC(C)C)C(=O)NC1CCN(C)CC1 (stereo not drawn) [VC-LC-0211]	67.87%	-4.59 mV	0.14	181 nm	
CCCCCCCC/C=C\CCCCCCCC(=O)NC(CCSCCC(=O)OCCCCCCCCCCCC)C(=O)NC1CCN(C)CC1 (stereo not drawn) [VC-LC-0326]	99.06%	7.00 mV	0.25	181.9 nm	
CCCCCCCCCCCCOC(=O)CCSCCC(NC(=O)C(CCCCCC)CCCCCCCC)C(=O)NCCCN(C)C (stereo not drawn) [VC-LC-0103]	100.00%	0.00 mV			
CCCCCCCCCCCCCCCCOC(=O)CCSCCC(NC(=O)C(CCCCCC)CCCCCCCC)C(=O)NCCCN1CCOCC1 (stereo not drawn) [VC-LC-0170]	56.36%	-22.79 mV		266.4 nm	
CCCCCCCCOC(=O)CCSCCC(NC(=O)C(CCCCCC)CCCCCCCC)C(=O)NCCCn1ccnc1 (stereo not drawn) [VC-LC-0269]	36.60%	-10.28 mV	0.15	176.7 nm	
CCCCCCCCCCCCCCCCCCOC(=O)CCSCCC(NC(=O)CCCCCCCCCCCCCCCCC)C(=O)NCCCN1CCOCC1 (stereo not drawn) [VC-LC-0380]	71.74%	-17.08 mV	0.25	170.6 nm	
CCCCCCCCCCCCCCCCOC(=O)CCSCCC(NC(=O)C(CCCCCC)CCCCCCCC)C(=O)NC1CCN(C)CC1 (stereo not drawn) [VC-LC-0216]	52.13%	-20.53 mV	0.35		
CCCCCCCC/C=C\CCCCCCCCOC(=O)CCSCCC(C(=O)NC1CCN(C)CC1)C(=O)OC(CCCCCCCC)CCCCCCCC (stereo not drawn) [VC-LC-0443]	86.01%	-2.92 mV	0.13	181.3 nm	86.01%
CCCCCCCCC(CCCCCC)C(=O)NC(CCSCCC(=O)OCCCCCC)C(=O)NCCCN1CCOCC1 (stereo not drawn) [VC-LC-0175]	23.97%	-15.84 mV	0.09	120 nm	
CCCCCCCCC(CCCCCC)C(=O)NC(CCSCCC(=O)OCCCCCCCC(C)C)C(=O)NCCCN1CCOCC1 (stereo not drawn) [VC-LC-0165]	45.16%	-26.69 mV	0.21	181.9 nm	
CCCCCCCCCCCCOC(=O)CCSCCC(C(=O)NCCCN1CCOCC1)C(=O)OCC(CCCCCC)CCCCCCCC (stereo not drawn) [VC-LC-0609]	54.21%	-20.42 mV	0.16	168.6 nm	
CCCCCCCC/C=C\CCCCCCCC(=O)NC(CCSCCC(=O)OCCCCCCCCCCCCCCCC)C(=O)NCCCN(CCO)CCO (stereo not drawn) [VC-LC-0290]	56.36%	-22.79 mV		266.4 nm	
CCCCCCCCC(CCCCCC)C(=O)NC(CCSCCC(=O)OCCCCCCCC(C)C)C(=O)NCCN1CCN(C)CC1 (stereo not drawn) [VC-LC-0180]	87.95%	-4.28 mV	0.19	197.5 nm	
